From paper PMC10827914 (Cellular and Molecular Life Sciences: CMLS, 2024)
Structures can show the parent of a compound that is named as a salt.

How the values were obtained:
[1] = system: HUVEC; test: HUVEC cell adhesion assay on coated microtiter plates; format: cell-based, human; details: plates coated with 10 µg/mL, 4 × 10^5 HUVEC, 2.5 h, 37 °C, crystal violet, absorbance 540 nm
Procedure: The peptide VGCARRYCSGGSGGGSGK-biotin, with a biotin moiety linked to the ε-aminogroup of the Lys residue (ProteoGenix), was complexed with streptavidin (G4-streptavidin) or avidin (G4-avidin) by mixing it with a molar excess of streptavidin or avidin in DPBS (1:6 mol/mol), followed by incubation for 1 h at room temperature under mild stirring. To perform the cell adhesion assay, 96-well polyvinyl chloride microtiter plates were coated with G4-avidin or G4-streptavidin (10 µg/mL in DPBS, overnight, 4 °C). After blocking with 2% BSA in EBM-2 (45 min at room temperature), 4 × 10^5 HUVEC were seeded in Endothelial Cell Growth Basal Medium-2 (EBM-2, Cat. # 00190860, Lonza) and incubated for 2.5 h at 37 °C, 5% CO2. Unbound cells were removed by washing with EBM-2, and adherent cells were fixed with 3% paraformaldehyde and 2% sucrose in DPBS and stained with 0.5% crystal violet. The number of adherent cells was quantified by measuring the absorbance of the wells at 540 nm wavelength using a microplate reader.
Fig. 7 Adhesion of HUVEC cells to microtiter plates coated with G4-avidin or G4-streptavidin conjugates. Representative images of wells coated with 10 µg/mL of G4-avidin (A) or G4-streptavidin (B) complexes. Wells coated with avidin or streptavidin were used as negative controls. The absorbance of crystal violet-stained adherent cells is also shown. […]

[2] = molecular target: T1, recombinant human CD13 (rCD13) (Homo sapiens, UniProt P15144); test: rCD13 enzyme inhibition assay, L-alanine-p-nitroanilide substrate; format: biochemical; details: Fig. 4B and 4E, one experiment in duplicate
T1 construct: consisting of the CD13 extracellular domain expressed in HEK-293 cells; His-tag; purchased Sino Biological 10051-H08H; host or cells: HEK-293 cells
T1 sequence (P15144 33-967 limits assumed): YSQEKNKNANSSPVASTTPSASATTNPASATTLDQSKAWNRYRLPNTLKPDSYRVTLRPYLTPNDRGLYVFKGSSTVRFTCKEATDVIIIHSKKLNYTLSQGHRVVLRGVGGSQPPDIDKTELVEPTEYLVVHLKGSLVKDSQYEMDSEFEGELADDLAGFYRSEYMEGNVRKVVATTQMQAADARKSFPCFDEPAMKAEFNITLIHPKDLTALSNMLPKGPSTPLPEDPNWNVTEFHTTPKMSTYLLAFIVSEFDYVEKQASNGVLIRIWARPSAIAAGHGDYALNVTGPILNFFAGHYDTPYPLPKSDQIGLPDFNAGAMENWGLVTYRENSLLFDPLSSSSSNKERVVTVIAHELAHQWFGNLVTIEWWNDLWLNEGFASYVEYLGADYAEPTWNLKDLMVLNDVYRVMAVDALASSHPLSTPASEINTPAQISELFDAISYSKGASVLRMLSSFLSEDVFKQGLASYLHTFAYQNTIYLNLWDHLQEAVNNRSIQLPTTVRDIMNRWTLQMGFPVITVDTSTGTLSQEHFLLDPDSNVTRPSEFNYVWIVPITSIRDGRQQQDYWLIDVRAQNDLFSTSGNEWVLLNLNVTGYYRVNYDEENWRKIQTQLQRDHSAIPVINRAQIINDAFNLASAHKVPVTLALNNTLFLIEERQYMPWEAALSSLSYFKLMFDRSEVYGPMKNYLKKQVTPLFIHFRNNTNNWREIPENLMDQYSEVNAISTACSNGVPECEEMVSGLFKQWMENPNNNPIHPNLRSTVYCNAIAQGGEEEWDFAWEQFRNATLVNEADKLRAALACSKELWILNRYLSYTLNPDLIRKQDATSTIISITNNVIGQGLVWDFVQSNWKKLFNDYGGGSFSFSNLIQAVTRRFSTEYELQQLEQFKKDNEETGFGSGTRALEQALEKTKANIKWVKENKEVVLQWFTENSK
Procedure: (§1) Recombinant CD13 (rCD13) enzyme activity and inhibition assays were performed as described previously using L-alanine-p-nitroanilide or L-alanine 7-amido-4-methylcoumarin as substrates in 60 mM Tris–HCl, pH 7.4, or 60 mM potassium phosphate buffer, pH 7.4. Mixtures containing peptides at various concentrations, rCD13 (0.2 µg/mL), and L-alanine-p-nitroanilide substrate (0.5 mM) in 60 mM potassium phosphate buffer, pH 7.4 (total volume, 0.1 ml) were prepared and left to react for 30 min at 37 °C. The products were then analyzed using a plate reader (iMark Microplate Absorbance Reader; Bio-Rad). Alternatively, the assay was performed using 0.1 mM L-alanine 7-amido-4-methylcoumarin in 60 mM Tris–HCl, pH 7.4, as a substrate. Fluorescence intensity of methylcoumarin was measured on an Infinite 200 PRO plate reader (Tecan) using the following settings: excitation wavelength: 341 nm; emission wavelength: 441 nm; excitation bandwidth: 9; emission bandwidth: 20 nm; gain: 109 manual; number of flashes: 25; integration time: 20 µs; lag time: 0 µs; settle time: 0 ms.
(§2) The IC50 of each inhibitor was calculated by non-linear regression analysis of inhibition data using GraphPad Prism Software (GraphPad Software, Version 9.00, San Diego, CA). Steady-state enzyme kinetic analyses were performed using various concentrations of L-alanine-p-nitroanilide (0–1.5 mM) and VGCARRYCS peptide (0–900 nM). The initial velocities (Vo) were calculated from the slopes of the first 5 min of reaction. The enzyme inhibitory constant (Ki) was calculated using the competitive enzyme inhibition model in GraphPad Prism Software.
A) VGCGRRYCSN and CSGIGSSGGC (control) peptides, at various concentrations, were mixed with rCD13 (0.2 µg/mL), L-alanine-p-nitroanilide substrate (0.5 mM), in 60 mM potassium phosphate buffer, pH 7.4. The mixtures were left to react for 30 min at 37° C; then the absorbance at 405 nm of each mixture was measured using an ELISA plate reader (Bio-Rad). The IC50 of each inhibitor was calculated by non-linear regression analysis of inhibition data using the GraphPad Prism Software (GraphPad Software, Version 9.00, San Diego, CA). The result of one experiment performed in duplicate is shown (mean ± SEM).

[3] = system: membrane CD13 expressed by HUVEC; test: Competitive binding of anti-CD13 mAb WM15 to HUVEC by flow cytometry; set-up: species or system human; details: Fig. 4C and 4D
Procedure: HUVEC were seeded in 96-well U-bottom polystyrene microtiter plates at a density of 2 × 10^5 cells in 100 µL DPBS supplemented with 5% normal human serum (NHS) and mixed with a mixture of peptide G4 ranging from 0 to 10 µM and mAb WM15 (0 or 0.13 nM). The chromogranin A429-439 peptide fragment (CgA429-439) was used instead of G4 as a control. After 1 h of incubation at 4 °C, the cells were washed and resuspended in 100 µL of DPBS containing 5% NHS and 1 µg/mL of FITC-labeled goat anti-mouse IgG secondary antibody. Cells were subsequently incubated for 1 h at 4 °C, washed, and analyzed by flow cytometry. All flow cytometry data were collected on a CytoFLEX S flow cytometer (Beckman Coulter) and analyzed using FlowJo software 10 (BD BioScience).
Fig. 2 G4 recognizes soluble forms of CD13, with higher affinity and selectivity than bestatin, and the membrane forms expressed on the surface of HUVEC cells. A Inhibitory effects of G4 and bestatin on the enzymatic activities of different aminopeptidases (rCD13, APA, and APB). Various amounts of G4 or bestatin were incubated with rCD13 (0.2 µg/mL in 60 mM Tris–HCl pH 7.4), APA (0.2 µg/mL in 60 mM Tris–HCl pH 7.4, 50 mM calcium chloride, 200 mM sodium chloride) or APB (0.2 µg/mL in 60 mM Tris–HCl pH 7.4, 100 mM potassium chloride) and the corresponding substrates at 0.1 mM (L-alanine-7-amido-4-methylcoumarin for rCD13, L-glutamic acid γ-(7-amido-4-methylcoumarin) for APA, and L-arginine-7-amido-4-methylcoumarin for APB). The mixtures were incubated for 30 min at 37 °C, and the cleavage of each substrate was monitored by measuring the fluorescence of methylcoumarin (λex 341 nm; λem 441 nm) using an Infinite 200 PRO plate reader (Tecan). Three independent experiments were performed for each enzyme. […] Substrate cleavage by sCD13 dissociated from mAb WM15 was then monitored by measuring the absorbance at 405 nm in each well using a plate reader (Bio-Rad). […] After incubation for 60 min at 4 °C, the cells were washed and analyzed by flow cytometry. Data are expressed as the percentage of counts vs. fluorescence intensity units […]

[4] = molecular target: T1, recombinant human CD13 (rCD13); test: rCD13 enzyme inhibition assay, L-alanine 7-amido-4-methylcoumarin substrate; format: biochemical; details: rCD13 0.2 µg/mL, 60 mM Tris–HCl pH 7.4, 0.1 mM L-alanine-7-amido-4-methylcoumarin, 30 min, 37 °C
Procedure: as §1, §2
Fig. 2 G4 recognizes soluble forms of CD13, with higher affinity and selectivity than bestatin, and the membrane forms expressed on the surface of HUVEC cells. A Inhibitory effects of G4 and bestatin on the enzymatic activities of different aminopeptidases (rCD13, APA, and APB). Various amounts of G4 or bestatin were incubated with rCD13 (0.2 µg/mL in 60 mM Tris–HCl pH 7.4), APA (0.2 µg/mL in 60 mM Tris–HCl pH 7.4, 50 mM calcium chloride, 200 mM sodium chloride) or APB (0.2 µg/mL in 60 mM Tris–HCl pH 7.4, 100 mM potassium chloride) and the corresponding substrates at 0.1 mM (L-alanine-7-amido-4-methylcoumarin for rCD13, L-glutamic acid γ-(7-amido-4-methylcoumarin) for APA, and L-arginine-7-amido-4-methylcoumarin for APB). The mixtures were incubated for 30 min at 37 °C, and the cleavage of each substrate was monitored by measuring the fluorescence of methylcoumarin (λex 341 nm; λem 441 nm) using an Infinite 200 PRO plate reader (Tecan). Three independent experiments were performed for each enzyme. The results of one representative experiment for each enzyme are shown (mean ± SEM, duplicates). B Inhibitory effects of G4 and bestatin on soluble CD13 immunocaptured from human serum (sCD13) using microtiter plates coated with anti-CD13 mAb WM15. The microtiter plate was filled with a solution of mAb WM15 (5 μg/ml in DPBS) and incubated overnight at 4 °C. The plate was then washed with DPBS, blocked with 3% bovine serum albumin (BSA) in DPBS, and filled with human serum containing soluble CD13 (diluted 1:2 with DPBS containing 2% BSA). After washing with DPBS, mixtures of G4 or bestatin (0–100 µM in 60 mM Tris–HCl, pH 7.4) and L-alanine p-nitroanilide hydrochloride substrate (4.5 mM in 60 mM Tris–HCl, pH 7.4) were added and left to incubate at 37 °C for 2 h. Substrate cleavage by sCD13 dissociated from mAb WM15 was then monitored by measuring the absorbance at 405 nm in each well using a plate reader (Bio-Rad). The results of one experiment performed in triplicate are shown (mean ± SEM). C Effect of G4 on the binding of the anti-CD13 mAb WM15 to HUVEC. HUVEC were seeded at a density of 2 × 10^5 cells in 100 µL DPBS supplemented with 5% normal human serum (NHS) and incubated with a mixture of G4 peptide (0, 0.1, 1, and 10 µM) and mAb WM15 (0 or 0.13 nM) as indicated. […]

[5] = system: recombinant human aminopeptidase B (APB); test: Enzyme activity assay of recombinant APB; format: biochemical; details: APB 0.2 µg/mL, 60 mM Tris–HCl pH 7.4, 100 mM KCl, 0.1 mM L-arginine-7-amido-4-methylcoumarin, 30 min, 37 °C
Procedure: The effect of peptides on the enzymatic activity of APA and APB was evaluated using the method described previously with some modifications. Briefly, threefold serial dilution of peptides (ranging from 0 to 10 or 100 µM) were incubated with either APA (0.2 µg/mL in 60 mM Tris–HCl pH 7.4, 50 mM CaCl2, 200 mM NaCl) or APB (0.2 µg/mL in 60 mM Tris–HCl pH 7.4, 100 mM KCl) and relative substrates at 0.1 mM (L-glutamic acid γ-(7-amido-4-methylcoumarin) or L-arginine-7-amido-4-methylcoumarin, respectively) in 96-well bottom clear black polystyrene microtiter plates (100 µl/well). The mixture was incubated for 30 min at 37 °C in a humid box, and the cleavage of the substrate was correlated with aminopeptidase enzymatic activities by measuring the fluorescence of methylcoumarin at λex 341 nm and λem 441 nm with a plate reader (Infinite 200 PRO, Tecan). IC50 was calculated as reported above for CD13 activity.
Fig. 2 G4 recognizes soluble forms of CD13, with higher affinity and selectivity than bestatin, and the membrane forms expressed on the surface of HUVEC cells. […] The mixtures were incubated for 30 min at 37 °C, and the cleavage of each substrate was monitored by measuring the fluorescence of methylcoumarin (λex 341 nm; λem 441 nm) using an Infinite 200 PRO plate reader (Tecan). […] After incubation for 60 min at 4 °C, the cells were washed and analyzed by flow cytometry. […]

Inhibition of rCD13 enzymatic activity (in words) [4]	Inhibition of APB enzymatic activity (in words) [5]	Compound	Endothelial cell adhesion to coated plates (in words) [1]	Inhibition of rCD13 enzymatic activity (in words) [2]	Competition of mAb WM15 binding to HUVEC (in words) [3]
		VGCARRYCSGGSGGGSGK-biotin [G4-avidin, …-biotin complexed with avidin]	promoted endothelial cell adhesion	could not inhibit the enzymatic activity of recombinant soluble CD13	competed the binding of mAb WM15 to endothelial cells
inhibited both rCD13 and APB	inhibited both rCD13 and APB	CC(C)C[C@H](NC(=O)[C@@H](O)[C@H](N)Cc1ccccc1)C(=O)O [bestatin, Bestatin-hydrochloride]			
